This note sets out measurements from the NIST ThermoML archive (doi:10.1021/je600578u).

Molecules are shown by their SMILES. ± gives the expanded uncertainty stated by the source.

The term mass density denotes mass per unit of volume. As usually defined, the refractive index is a measure of how strongly the sample bends light.

The conditions of series [1]: 298.15 K; 101.33 kPa; Liquid.
Series [2] is described as follows: refractive index (Na D-line) (dimensionless). As to conditions: 298.15 K; 101.33 kPa; Liquid; Standard Abbe refractometry.

Consider `CCO` [ethanol], for which the mass density in series [1] worked out at 785.27 ± 0.98 kg/m3. For the same molecule, the refractive index in series [2] is listed as 1.35928 ± 0.00052.

Regarding `c1ccccc1` [benzene], the mass density in series [1] was determined as 873.57 ± 0.96 kg/m3. For the same molecule, the refractive index in series [2] came to 1.49764 ± 0.00054.
